# Measurements reported in patent US20100093613A1, “METHODS FOR IDENTIFYING AGENTS AND THEIR USE FOR THE PREVENTION OR STABILIZATION OF FIBROSIS” (priority 2007, published 2010).
# Columns and labels:
# Type in all cases: cell-based, human
# Fibroblasts = assay: BioMAP HDF3CGF system (IL-1β + TNF-α + IFN-γ + EGF + bFGF + PDGFbb), scoring of readout parameters; settings: for PAI-1 score: desired change decrease; for MMP-1 score: desired change increase; for EGFR score: desired no change or increase
# Protocol: In the “HDF-3CGF” system, dermal fibroblast cells, usually primary human dermal fibroblast cells are cultured alone or in the presence of lung epithelial cells, usually primary human lung epithelial cells, with two or more factors selected from: TNF, IL-1, IFNγ, EGF, bFGF+HSPG (heparan sulfate proteoglycan), and PDGFbb. In some embodiments three or more factors are present, four or more, five or more, or all six factors are present.
# Human neonatal dermal fibroblasts (HDFn) or adult lung fibroblasts (HDFp) or fibroblasts from tissues such as liver, heart, or kidney are used. Cells are cultured at 3×10^4 cells/ml in DMEM/F12 (50/50) from Cellgro, supplemented with LSGS kit (from Cascade Biologics); fetal bovine serum, 2% v/v, hydrocortisone 100 nM, human epidermal growth factor 10 ng/ml, basic fibroblast growth factor 3 ng/ml and heparin 10 μg/ml, and penicillin/streptomycin amphotericin B solution (PSA), until confluency. Medium is replaced with DMEM/F12 with only penicillin/streptomycin amphotericin B solution (PSA), then 24 hours later, the following are applied:
# After another 24, 48 or 72 hours incubation (37° C., 5% CO2) the cultures are evaluated for the following parameters: ICAM, VCAM, CD40, CD90, IP-10, MCP-1, Collagen I, Mig, m-CSF, TIMP-2, PAI-I, IL-8, Collagen III, HLA-DR, MMP-1, MMP-9, proliferation, TGF-b1, eotaxin-3, decorin, alpha-SMC, MLCK, I-TAC, EGFR, TIMP-1.
# Cell culture. […] Human dermal fibroblasts were pooled from 3 donors, cultured according to standard methods, and plated confluent 24 h before stimulation. Cell culture medium for all systems containing fibroblasts and keratinocytes contained low hydrocortisone. […] Concentrations/amounts of agents added to confluent microtiter plates to build each system: cytokines (IL-1β, 1 ng/ml; TNF-α, 5 ng/ml; IFN-γ, 20 ng/ml; IL-4, 5 ng/ml), activators (SAg, 20 ng/ml; histamine, 10 μM; zymosan, 10 μg/ml; or LPS, 2 ng/ml), growth factors (TGF-β, 5 ng/ml; EGF, bFGF, and PDGF-BB, 10 ng/ml), and PBMC (7.5×10^4 cells/well) or macrophages (3.5×10^4 cells/well).
# [1] = tested on: Bronchial epithelial cells; assay: BioMAP BE3C system (IL-1β + TNF-α + IFN-γ), scoring of readout parameters; settings: for PAI-1 score: desired change decrease; for EGFR score: desired no change or increase
# Excerpt: (§1) Each screened compound is scored according to its modulation of the selected readout parameters. Compounds receive a positive score (score of 1) or negative score (score of 0) for each readout parameter set forth in Table 2 that is modulated in the desired direction. […] Parameters may be penalized by making the positive score a −1 for parameters where regulation is opposite to the desired direction.
# (§2) Cell culture. Human umbilical vein endothelial cells (HUVEC) were pooled from multiple donors, cultured according to standard methods, and plated into microtiter plates at passage 4. Cell culture medium for all systems containing HUVEC included hydrocortisone. Coronary artery smooth muscle cells (CASM3C) and umbilical artery smooth muscle cells (HSM3C) were cultured according to standard procedures. Peripheral blood mononuclear cells (PBMC) were prepared from buffy coats from normal human donors according to standard methods. Monocyte-derived macrophages were differentiated in the presence of M-CSF for 7 d according to standard procedures. Human dermal fibroblasts were pooled from 3 donors, cultured according to standard methods, and plated confluent 24 h before stimulation. Cell culture medium for all systems containing fibroblasts and keratinocytes contained low hydrocortisone. Epidermal keratinocytes and bronchial epithelial cells from 3 donors were cultured according to standard procedures and pooled when plated into microtiter plates. For keratinocyte-fibroblast co-cultures, cells were plated simultaneously 24 h before stimulation. For bronchial epithelial cell-fibroblast co-cultures, fibroblasts were plated and cultured 48 before addition of epithelial cells, then cultured another 24 hr before stimulation. Concentrations/amounts of agents added to confluent microtiter plates to build each system: cytokines (IL-1β, 1 ng/ml; TNF-α, 5 ng/ml; IFN-γ, 20 ng/ml; IL-4, 5 ng/ml), activators (SAg, 20 ng/ml; histamine, 10 μM; zymosan, 10 μg/ml; or LPS, 2 ng/ml), growth factors (TGF-β, 5 ng/ml; EGF, bFGF, and PDGF-BB, 10 ng/ml), and PBMC (7.5×10^4 cells/well) or macrophages (3.5×10^4 cells/well).
# (§3) Compounds. Compounds were prepared in the solvent directed, added 1 hr before stimulation of the cells, and were present during the 24 hr stimulation period for the measurement of parameters listed in Table 2. For proliferation, compounds added 1 hr before stimulation of the cells with cytokines, and were present during the 48 to 72 hr assay. If prepared in DMSO, the final concentration of solvent was 0.1% or less.
# (§4) Readout Parameter Measurements. The levels of readout parameters were measured by ELISA. Briefly, microtiter plates are treated, blocked, and then incubated with primary antibodies or isotype control antibodies (0.01-0.5 microg/ml) for 1 hr. After washing, plates were incubated with a peroxidase-conjugated anti-mouse IgG secondary antibody or a biotin-conjugated anti-mouse IgG antibody for 1 hr followed by streptavidin-HRP for 30 min. Plates were washed and developed with TMB substrate and the absorbance (OD) was read at 450 nm (subtracting the background absorbance at 650 nm). Quantitation of TNF-alpha or PGE2 in the LPS system was done using a commercially available kit according to the manufacturer's directions. Proliferation of endothelial cells (HUVEC and CAEC), smooth muscle cells (SMC and CASMC), and PBMC (T cells) was quantitated by Alamar Blue reduction or SRB.
# (§5) Data analysis. Mean OD values for each parameter were calculated for compounds run in duplicate. The mean value (or single well OD value) for each parameter in a treated sample was then divided by the mean value from an appropriate control to generate a ratio. All ratios were then log10 transformed. 95% significance prediction envelopes (grey shading in Figures) were calculated for historical controls.
# [2] = tested on: Peripheral Blood Mononuclear Cells + Umbilical Vein Endothelial Cells; assay: BioMAP LPS system (TLR4), scoring of readout parameters; settings: LPS (by position); desired change decrease
# Excerpt: as §1, §2, §3, §4, §5
# [3] = tested on: Umbilical Vein Endothelial Cells; assay: BioMAP 3C system (IL-1β + TNF-α + IFN-γ), scoring of readout parameters; settings: for HLA-DR score: desired change decrease; for uPAR score: desired change increase
# Excerpt: as §1, §2, §3, §4, §5
Compound,PAI-1 score (Fibroblasts),MMP-1 score (Fibroblasts),EGFR score (Fibroblasts),HLA-DR score [1],MMP-1 score [1],uPA score [1],PAI-1 score [1],EGFR score [1],TF score [2],HLA-DR score [3],uPAR score [3]
Cn1cnc([N+](=O)[O-])c1Sc1ncnc2nc[nH]c12 [Azathioprine],0,0,0,0,0,0,0,0,0,0,0
CCc1oc2ccccc2c1C(=O)c1cc(Br)c(O)c(Br)c1 [Benzbromarone],1,0,0,0,1,0,1,0,0,0,0
C=C1CC[C@H](O)C/C1=C/C=C1\CCC[C@]2(C)[C@@H]([C@H](C)/C=C/[C@H](C)C(C)C)CC[C@@H]12 [Calciferol],1,0,0,0,1,0,0,0,0,0,1
COc1cc2c(c(OC)c1OC)-c1ccc(OC)c(=O)cc1[C@@H](NC(C)=O)CC2 [Colchicine],0,0,0,0,0,0,0,0,0,0,0
O=C(O)c1ccccc1Nc1cccc(C(F)(F)F)c1 [Flufenamic Acid],0,0,0,0,0,0,1,0,0,0,0
Fc1ccc(C(OCCN2CCN(CCCc3ccccc3)CC2)c2ccc(F)cc2)cc1 [GBR 12909],1,0,0,0,1,0,0,0,0,0,0
CCCCN(CCCC)CCC(O)c1cc2c(Cl)cc(Cl)cc2c2cc(C(F)(F)F)ccc12 (stereo not drawn) [Halofantrine],1,0,0,0,1,0,0,0,0,0,0
CCN(CC)CCNc1ccc(CO)c2sc3ccccc3c(=O)c12 [Hycanthone],1,0,0,0,0,0,1,0,1,0,0
O=c1cc(-c2ccc(O)c(O)c2)oc2cc(O)cc(O)c12 [Luteolin],1,0,0,0,0,0,0,0,1,0,0
COC(=O)Nc1nc2ccc(SC(C)C)cc2[nH]1 [Methiazole],1,0,0,0,0,0,1,0,1,0,0
C[C@]12C=CC(=O)C=C1CC[C@@H]1[C@@H]2[C@@H](O)C[C@@]2(C)[C@H]1CC[C@]2(O)C(=O)CO [Prednisolone],0,0,0,0,0,0,0,0,0,1,0
Cc1c(Cl)cccc1Nc1ccccc1C(=O)O [Tolfenamic Acid],0,0,0,0,1,0,1,0,0,0,0
COc1cc(-c2ccc(=O)[nH]n2)ccc1OC(F)F [Zardaverine],1,0,0,0,0,0,0,0,1,0,0
(R)-(−)-Apomorphine,1,0,0,1,0,0,1,0,0,0,0
Antimycin A,1,0,0,0,0,0,1,0,1,0,0
